Legend:
[1] = In vivo metabolism of [14C]COMPOUND I in Sprague-Dawley rats, single oral 5 mg/kg dose; set-up: species or system rat; conditions: for Chromatographic Distribution of Radioactivity in Pooled Plasma Samples: 5 mg/kg oral [14C]COMPOUND I
Description: Dose preparation, animal dosing, and specimen collection were performed at Wyeth Research, Collegeville, Pa. The vehicle contained 2% (w/v) polysorbate 80, NF and 0.5% (w/v) methylcellulose (4000 cps) in water. [^14C]COMPOUND I trisuccinate salt (36.6 mg) and non-labeled COMPOUND I trisuccinate salt (26.7 mg) were dissolved in 1 mL of ethanol and suspended in 35 mL of the vehicle with stirring. The target [^14C]COMPOUND I concentration was approximately 1 mg/mL as free base and 70 μCi/mL with a target specific activity of 70 μCi/mg. Three pre- and post-dose aliquots (100 μL) were taken for the determination of radiochemical purity, drug and radioactivity concentrations and specific activity (see below).
Male rats weighing from 323 to 354 g and female rats weighing from 270 to 317 g at the time of dosing were purchased from Charles River Laboratories (Wilmington, Mass.). Non-fasted rats were given a single 5 mg/kg (˜350 μCi/kg) dose of [^14C]COMPOUND I at a volume of 5.0 mL/kg via intragastric gavage. Three rats were dosed for each time point. Animals were provided Purina rat chow and water ad libitum, and were kept individually in metabolism cages.
Blood samples were collected at 1, 3, 6 and 24 hr from male rats and at 1 and 3 hr from female rats after dose administration by cardiac puncture into tubes containing EDTA as the anticoagulant and placing them on ice. Triplicate aliquots (50 μL) of whole blood were removed and plasma was immediately obtained from the remaining blood by centrifugation at 4° C. Whole brain samples were collected after saline perfusion at 1, 3, 6 and 24 hr post-dose from male rats and at 1 and 3 hr post-dose from female rats. Urine samples were collected on dry ice from male rats at intervals of 0-6 and 6-24 hr post-dose. Feces were collected from male rats at 0-24 hr post-dose at room temperature. The biological specimens and aliquots of the dose suspension were stored at approximately −70° C. until analysis.
Triplicate aliquots of diluted dose (20 μL), dose fractions (10 μL), and plasma (50 μL) and urine (100 μL) from individual rats were analyzed for radioactivity concentrations. Radioactivity determinations were made with a Tri-Carb Model 3100 TR liquid scintillation counter (LSC) (Perkin Elmer) using 5 mL of Ultima Gold as the scintillation fluid.
Brain and fecal samples from individual rats were weighed and homogenized in water at a volume-to-weight ratio of about 3:1 and 5:1, respectively, with a Polytron PT homogenizer at ice-cold temperature. Duplicate aliquots of blood (50 μL), brain homogenates (0.2 g) and fecal homogenates (0.2 g) were placed on Combusto-cones with Combusto-pads and allowed to dry overnight. Samples were combusted with a model 307 Tri-Carb Sample Oxidizer, equipped with an Oximate-80 Robotic Automatic Sampler (Perkin Elmer). The liberated ^14CO2 was trapped with Carbo-Sorb E carbon dioxide absorber, mixed with PermaFluor® E^+ liquid scintillation cocktail, and counted in a Tri-Carb Model 3100 TR/LL liquid scintillation counter (Perkin Elmer).
Plasma samples were pooled by equal volumes from three animals at each time point (1, 3, 6 and 24 hr for males; 1 and 3 hr for females). Aliquots of 2 mL of pooled plasma were mixed with 2 mL of acetonitrile, placed on ice for about 10 min, and then centrifuged at 4° C. The supernatant was transferred to a clean tube. The protein pellets were extracted two more times with 4 mL of acetonitrile. The supernatants from precipitation and extraction of each sample were pooled, mixed, and evaporated at 22° C. under nitrogen in a TurboVap LV evaporator (Caliper Life Sciences, Hopkinton, Mass.) to about 1.0 mL. The concentrated extract was centrifuged, the supernatant volume measured and the extraction efficiency was determined by analyzing duplicate 10 μL aliquots for radioactivity concentrations.

[2] = Metabolite profiling in liver microsomes and S9; assay type: in vitro ADME, rat, dog, monkey, human; conditions: liver microsomes and S9, 10 μM COMPOUND I, 30 min; species letters not defined
Description: Microsomal incubations for metabolite profiling were similar to those described above for intrinsic clearance determination (see Table 1). Aliquots of COMPOUND I (10 μL), dissolved in DMSO:methanol (1:9), were added to a 96-well plate containing phosphate buffer, and MgCl2 and the liver microsomes at 37° C. using the same automation apparatus as for the stability study described hereinabove. The reactions were initiated by the addition of the UDPGA and NADPH generating system. The final incubation volume for all samples was 1 mL and the length of incubation was 30 min. […] Three 250 μL aliquots were transferred to a 96-well plate containing 900 μL acetonitrile to precipitate the protein. […] The samples were then reconstituted in 150 μL of 20% methanol in water. The three aliquots for each sample were pooled and analyzed by LC/MS.
S9 incubation buffer and cofactors were chosen to allow N-acetylation and carbamoyl glucuronidation in addition to oxidative and glucuronidation pathways possible in liver microsomes. Incubations of sulfamethazine and SCA-136 with liver S9 were used as positive controls for N-acetylation and carbamoyl glucuronidation, respectively. Following a 30 min. incubation, 750 μL from each sample were added to 900 μL acetonitrile. Following centrifugation and evaporation of the supernatant, the samples were reconstituted in 450 μL of 20% methanol in water for analysis by HPLC/UV and LC/MS (see below).
The HPLC system used for mass spectrometric analysis was an Agilent 1100 HPLC (Agilent Technologies, Palo Alto, Calif.) equipped with a binary pump and a diode array UV detector. The UV detector was set to monitor 190-400 nm. Separations were accomplished on a Luna C18 column (150×2.1 mm, 5 μm) (Phenomenex Incorporated, Torrance, Calif.).
The mass spectrometer used for metabolite characterization was a Finnigan LCQ Deca ion trap mass spectrometer (Thermo Electron Corp.). […] Full scan and data dependent MS2 and MS3 mass spectra were recorded. Finnigan Xcalibur software (version 1.3) was used for control of equipment and recording of data from UV and LC/MS analyses.
Chromatographic profiles of COMPOUND I (10 μM) metabolites in incubations with liver microsomes in the presence of NADPH are presented in FIG. 1. Chromatographic profiles of COMPOUND I (10 μM) metabolites in incubations with liver microsomes in the presence of NADPH and UDPGA are presented in FIG. 2. Chromatographic profiles of COMPOUND I (10 μM) metabolites in incubations with liver S9 in the presence of NADPH, UDPGA and acetyl coenzyme A (CoA) are presented in FIG. 3. In incubations containing NADPH, UDPGA and acetyl CoA, fourteen Phase I metabolites (M1, M6, M8, M12, M13, M14, M15, M16, M17, M18, M20, M21, M22 and M23) and six Phase II metabolites (M2, M3, M5, M7, M9 and M10) were observed. In incubations without cofactors, no metabolites were observed.
LC/MS analysis was conducted on extracts of mouse, rat, monkey and human liver microsomes and S9. The mass spectral data for the characterized COMPOUND I metabolites are discussed below.

[3] = Metabolite characterization in cryopreserved hepatocytes; conditions: hepatocyte incubations, 20 μM; R, rat; D, dog; H, human; Media = decomposition product observed in media control
Description: Pooled male rat, dog, and mixed male and female human cryopreserved hepatocytes were used in this study. The cryopreserved hepatocytes (two vials from each species; three to five million viable cells per vial) were thawed in a 37° C. water bath with gentle shaking until the ice was almost melted. The suspensions from the two individual vials of the same species were immediately transferred to a 50 mL centrifuge tube containing pre-warmed thawing media at 37° C. with gentle handshaking to prevent the cells from settling. The cell suspension was centrifuged at 50 g for 5 min at 4° C. Supernatants were discarded and the pellets were resuspended in pre-warmed incubation media (8 mL) at 37° C. […] [^14C]COMPOUND I (20 μM) was incubated in a 12-well plate containing hepatocyte suspensions at 1.0 mL per well in duplicate (≧1 million viable cells/well) at 37° C. for 1 or 4 hr in the presence of 5% CO2:95% O2. Control incubations without hepatocytes were also run under the same conditions. Positive controls containing [^14C]7-ethoxycoumarin (100 μM) were also incubated under the same conditions, but only for 1 hr. At the end of the incubations, reactions were stopped by adding acetonitrile with 2% acetic acid (1 mL), mixed for 10 min, followed by centrifugation at 4000 rpm for 10 min at 4° C. Aliquots (50 μL) of supernatants were analyzed by HPLC with UV and radioactivity flow detection for metabolite profiling, and by LC/MS for metabolite identification as described in below. To determine extraction recovery, aliquots (20 μL) of supernatants were analyzed for radioactivity content utilizing a Packard Tri-Carb Model 3100 TR liquid scintillation counter and 5 mL of Ultima Gold.
The HPLC system used for mass spectrometric analysis was a Waters Alliance model 2695 HPLC system (Waters Corp). It was equipped with a built-in autosampler and a model 996 diode array UV detector. The UV detector was set to monitor 210-400 nm. The HPLC conditions were the same as those described hereinabove with the following exceptions. […]

Chromatographic Distribution of Radioactivity in Pooled Plasma Samples ([1]; female rats, 1 hr)	Chromatographic Distribution of Radioactivity in Pooled Plasma Samples ([1]; female rats, 3 hr)	percent of total plasma radioactivity ([1]; male and female rats, range over time points, 5 mg/kg oral)	Chromatographic Distribution of Radioactivity in Pooled Plasma Samples ([1]; male rats, 1 hr)	Chromatographic Distribution of Radioactivity in Pooled Plasma Samples ([1]; male rats, 3 hr)	Chromatographic Distribution of Radioactivity in Pooled Plasma Samples ([1]; male rats, 6 hr)	Species (in which the metabolite was characterized) [2]	Source [3]	Structure (SMILES)
9.6%	16.2%	9.6-17.1%	15.2%	17.1%	16.5%	R, D, M, H		COc1cc(N2CCN(C3CCN(c4ccc(OC5OC(C(=O)O)C(O)C(O)C5O)c5cccnc45)CC3)CC2)c2ncccc2c1 (stereo not drawn) [Metabolite M5, Hydroxy desfluoro COMPOUND I glucuonide]
						R, D, M, H	D (trace), H	COc1cc(N2CCN(C3CCN(c4ccc(O)c5cccnc45)CC3)CC2)c2ncccc2c1 [Metabolite M18, Hydroxy desfluoro COMPOUND I]

Source: patent US20080262228A1, “Metabolites of 5-fluoro-8- quinoline and methods of preparation and uses thereof” (Wyeth, priority 2006, published 2008)
